# Target: T1, human CCR-3 (Homo sapiens, UniProt P51677)
# T1 construct: expressed in transfected cells; host or cells: rat basophil leukemia (RBL-2H3) cells, membranes
# T1 sequence (P51677 1-355): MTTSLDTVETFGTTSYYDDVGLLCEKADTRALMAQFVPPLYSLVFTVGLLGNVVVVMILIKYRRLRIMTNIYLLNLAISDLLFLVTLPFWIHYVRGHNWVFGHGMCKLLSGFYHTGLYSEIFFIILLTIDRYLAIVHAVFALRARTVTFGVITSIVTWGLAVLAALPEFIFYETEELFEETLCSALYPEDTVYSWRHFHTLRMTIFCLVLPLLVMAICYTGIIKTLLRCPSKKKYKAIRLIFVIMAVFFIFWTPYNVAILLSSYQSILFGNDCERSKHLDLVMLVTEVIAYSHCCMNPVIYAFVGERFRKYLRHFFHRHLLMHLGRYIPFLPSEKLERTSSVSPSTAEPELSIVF
# Assay: CCR-3 Binding Assay ([125I]-human eotaxin SPA)
# Details: inhibition of [125I]-human eotaxin binding to human CCR-3, membranes of RBL-2H3 cells expressing CCR3
# Description: In this assay the effect of agents of the invention on the binding of human eotaxin to human CCR-3 is determined. Recombinant cells expressing human CCR-3 are captured by wheatgerm agglutinin (WGA) polyvinyltoluidene (PVT) SPA beads (available from Amersham), through a specific interaction between the WGA and carbohydrate residues of glycoproteins on the surface of the cells. [^125I]-human eotaxin (available from Amersham) binds specifically to CCR-3 receptors bringing the [^125I]-human eotaxin in close proximity to the SPA beads. Emitted â-particles from the [^125I]-human eotaxin excite, by its proximity, the fluorophore in the beads and produce light.
# Preparation of Assay Buffer: 5.96 g HEPES and 7.0 g sodium chloride are dissolved in distilled water and 1M aqueous CaCl2 (1 mL) and 1M aqueous MgCl2 (5 mL) are added. The pH is adjusted to 7.6 with NaOH and the solution made to a final volume of 1 L using distilled water. 5 g bovine serum albumin and 0.1 g sodium azide are then dissolved in the solution and the resulting buffer stored at 4° C. A Complete™ protease inhibitor cocktail tablet (available from Boehringer) is added per 50 mL of the buffer on the day of use.
# Preparation of Homogenisation Buffer: Tris-base (2.42 g) is dissolved in distilled water, the pH of the solution is adjusted to 7.6 with hydrochloric acid and the solution is diluted with distilled water to a final volume of 1 L. The resulting buffer is stored at 4° C. A Complete™ protease inhibitor cocktail tablet is added per 50 mL of the buffer on the day of use.
# Preparation of membranes: Confluent rat basophil leukemia (RBL-2H3) cells stably expressing CCR3 are removed from tissue culture flasks using enzyme-free cell dissociation buffer and resuspended in phosphate-buffered saline. […]
# The assay is performed in a final volume of 250 μL per well of an Optiplate (ex Canberra Packard). […] The resulting scintillations are counted using a Canberra Packard TopCount, each well being counted for 1 minute. […]
row,SMILES,IC50
1,"COc1ccc(C#N)cc1/C=C/C(=O)N[C@H](CO)CN1CCC(Cc2ccc(Cl)cc2)CC1 [Example 2, (E)-3-(5-Cyano-2-methoxy-phenyl)-N-{(S)-2-[4-(4-chloro-benzyl)-piperidin-1-yl]-1-hydroxymethyl-ethyl}-acrylamide]",6 nM
2,"COc1ccc(Br)cc1/C=C/C(=O)NCCN1CCC(Cc2ccc(F)cc2)CC1 [Example 3, (E)-3-(5-Bromo-2-methoxy-phenyl)-N-{2-[4-(4-fluoro-benzyl)-piperidin-1-yl]-ethyl}-acrylamide]",34.7 nM
3,"COc1ccc(C#N)cc1/C=C/C(=O)N[C@H](CO)CN1CCC(Cc2ccc(F)cc2)CC1 [Example 4, (E)-3-(5-Cyano-2-methoxy-phenyl)-N-{(S)-2-[4-(4-fluoro-benzyl)-piperidin-1-yl]-1-hydroxymethyl-ethyl}-acrylaniide]",6 nM

# Source: patent US7259173B2, “Derivatives of 3-phenyl-n-(2-(4-benzyl)-piperidin-1-yl)-ethyl)-acrylamid with ccr-3-receptor antagonistic activity for use in the treatment of inflammations and allergic conditions” (Novartis AG, priority 2001, dated 2007)
